# “And” between values parts separate entries of the source, which are not always exact repeats. Equal entries are not always repeated.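 96-well plates; 48 h exposure; 5 concentrations. Endpoints by linear interpolation between flanking doses. Not reached: highest tested concentration assigned. Here, GI50 denotes the concentration required for 50% inhibition of growth. At the TGI there is no net growth.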
# How the values were obtained:
# Assay in all cases: NCI anticancer screen, dose series, 48 h
# UO-31 renal = test system: UO-31 renal
# SK-OV-3 ovarian = test system: SK-OV-3 ovarian
# HCT-15 colon = test system: HCT-15 colon
# 786-0 renal = test system: 786-0 renal
# MALME-3M melanoma = test system: MALME-3M melanoma
# SK-MEL-28 melanoma = test system: SK-MEL-28 melanoma
# HOP-92 NSCLC = test system: HOP-92 NSCLC
# M14 melanoma = test system: M14 melanoma
# SF-539 CNS = test system: SF-539 CNS
# IGROV1 ovarian = test system: IGROV1 ovarian
# NCI-H460 lung = test system: NCI-H460 lung
# ACHN renal = test system: ACHN renal
# RPMI-8226 leukemia = test system: RPMI-8226 leukemia
# CCRF-CEM leukemia = test system: CCRF-CEM leukemia
# SNB-75 CNS = test system: SNB-75 CNS
# SF-268 CNS = test system: SF-268 CNS
# NCI-H23 lung = test system: NCI-H23 lung
# A498 renal = test system: A498 renal
# UACC-62 melanoma = test system: UACC-62 melanoma
# CAKI-1 renal = test system: CAKI-1 renal
# TK-10 renal = test system: TK-10 renal
# NCI/ADR-RES ovarian = test system: NCI/ADR-RES ovarian
# PC-3 prostate = test system: PC-3 prostate
# DU-145 prostate = test system: DU-145 prostate
# RXF 393 renal = test system: RXF 393 renal
# OVCAR-5 ovarian = test system: OVCAR-5 ovarian
# HT29 colon = test system: HT29 colon
# NCI-H522 lung = test system: NCI-H522 lung
# HCT-116 colon = test system: HCT-116 colon
# SF-295 CNS = test system: SF-295 CNS
# SK-MEL-2 melanoma = test system: SK-MEL-2 melanoma
# OVCAR-4 ovarian = test system: OVCAR-4 ovarian
# HL-60(TB) leukemia = test system: HL-60(TB) leukemia
# U251 CNS = test system: U251 CNS
# HCC-2998 colon = test system: HCC-2998 colon
# HS 578T breast = test system: HS 578T breast
# MDA-MB-435 = test system: MDA-MB-435
# UACC-257 melanoma = test system: UACC-257 melanoma
# MDA-MB-231 breast = test system: MDA-MB-231 breast
# SNB-19 CNS = test system: SNB-19 CNS
# EKVX NSCLC = test system: EKVX NSCLC
# SW-620 colon = test system: SW-620 colon
# NCI-H226 lung = test system: NCI-H226 lung
# MOLT-4 leukemia = test system: MOLT-4 leukemia
# SN12C renal = test system: SN12C renal
# MCF7 breast = test system: MCF7 breast
# K-562 leukemia = test system: K-562 leukemia
# OVCAR-8 ovarian = test system: OVCAR-8 ovarian
# LOX IMVI melanoma = test system: LOX IMVI melanoma
# SR leukemia = test system: SR leukemia
# A549 NSCLC = test system: A549 NSCLC
# T-47D breast = test system: T-47D breast
# SK-MEL-5 melanoma = test system: SK-MEL-5 melanoma
# HOP-62 NSCLC = test system: HOP-62 NSCLC
# BT-549 breast = test system: BT-549 breast
# COLO 205 colon = test system: COLO 205 colon
smiles,measurement,setting,value
NC(N)=Nc1ccc(Oc2cccc(Nc3ccc(Br)c(C(F)(F)F)c3)c2)cc1,GI50,UO-31 renal,3.08 µM
same,TGI,UO-31 renal,11.5 µM
same,GI50,SK-OV-3 ovarian,2.11 µM
same,TGI,SK-OV-3 ovarian,5.12 µM
same,GI50,HCT-15 colon,2.05 µM
same,TGI,HCT-15 colon,4.83 µM
same,GI50,786-0 renal,1.6 µM
same,TGI,786-0 renal,3.12 µM
same,GI50,MALME-3M melanoma,1.8 µM
same,TGI,MALME-3M melanoma,4.04 µM
same,GI50,SK-MEL-28 melanoma,1.77 µM
same,TGI,SK-MEL-28 melanoma,3.22 µM
same,GI50,HOP-92 NSCLC,0.829 µM
same,TGI,HOP-92 NSCLC,2.16 µM
same,GI50,M14 melanoma,1.69 µM
same,TGI,M14 melanoma,3.29 µM
same,GI50,SF-539 CNS,1.63 µM
same,TGI,SF-539 CNS,3.09 µM
same,GI50,IGROV1 ovarian,1.19 µM
same,TGI,IGROV1 ovarian,2.76 µM
same,GI50,NCI-H460 lung,1.87 µM
same,TGI,NCI-H460 lung,3.51 µM
same,GI50,ACHN renal,2.69 µM
same,TGI,ACHN renal,7.84 µM
same,GI50,RPMI-8226 leukemia,1.97 µM
same,TGI,RPMI-8226 leukemia,4.61 µM
same,GI50,CCRF-CEM leukemia,1.97 µM
same,TGI,CCRF-CEM leukemia,5.5 µM
same,GI50,SNB-75 CNS,1.23 µM
same,TGI,SNB-75 CNS,2.56 µM
same,GI50,SF-268 CNS,1.68 µM
same,TGI,SF-268 CNS,3.45 µM
same,GI50,NCI-H23 lung,1.67 µM
same,TGI,NCI-H23 lung,3.37 µM
same,GI50,A498 renal,1.49 µM
same,TGI,A498 renal,2.91 µM
same,GI50,UACC-62 melanoma,1.77 µM
same,TGI,UACC-62 melanoma,3.28 µM
same,GI50,CAKI-1 renal,1.6 µM
same,TGI,CAKI-1 renal,3.14 µM
same,GI50,TK-10 renal,1.88 µM
same,TGI,TK-10 renal,4.11 µM
same,GI50,NCI/ADR-RES ovarian,14.6 µM
same,TGI,NCI/ADR-RES ovarian,37.5 µM
same,GI50,PC-3 prostate,1.4 µM
same,TGI,PC-3 prostate,2.73 µM
same,GI50,DU-145 prostate,1.8 µM
same,TGI,DU-145 prostate,3.31 µM
same,GI50,RXF 393 renal,1.75 µM
same,TGI,RXF 393 renal,3.27 µM
same,GI50,OVCAR-5 ovarian,1.63 µM
same,TGI,OVCAR-5 ovarian,3.07 µM
same,GI50,HT29 colon,1.56 µM
same,TGI,HT29 colon,3.12 µM
same,GI50,NCI-H522 lung,1.6 µM
same,TGI,NCI-H522 lung,3.35 µM
COc1cc(C)c(-c2ccc(=O)c(OC)cc2C)c(OC)c1OC,GI50,HCT-116 colon,> 100 µM and 25 µM
same,TGI,HCT-116 colon,> 100 µM
same,GI50,SF-295 CNS,> 100 µM and 22.9 µM
same,TGI,SF-295 CNS,> 100 µM
same,GI50,UO-31 renal,> 100 µM and 45.4 µM
same,TGI,UO-31 renal,> 100 µM
same,GI50,SK-OV-3 ovarian,> 100 µM and 27.1 µM
same,TGI,SK-OV-3 ovarian,> 100 µM
same,GI50,HCT-15 colon,> 100 µM and 12.9 µM
same,TGI,HCT-15 colon,> 100 µM
same,GI50,SK-MEL-2 melanoma,> 100 µM and 20.5 µM
same,TGI,SK-MEL-2 melanoma,> 100 µM
same,GI50,786-0 renal,> 100 µM and 46.2 µM
same,TGI,786-0 renal,> 100 µM
same,GI50,MALME-3M melanoma,> 100 µM and 37.8 µM
same,TGI,MALME-3M melanoma,> 100 µM
same,GI50,OVCAR-4 ovarian,> 100 µM and 92.2 µM
same,TGI,OVCAR-4 ovarian,> 100 µM
same,GI50,HL-60(TB) leukemia,> 100 µM and 21 µM
same,TGI,HL-60(TB) leukemia,> 100 µM and 94.6 µM
same,GI50,U251 CNS,> 100 µM and 30.9 µM
same,TGI,U251 CNS,> 100 µM
same,GI50,SK-MEL-28 melanoma,> 100 µM
same,TGI,SK-MEL-28 melanoma,> 100 µM
same,GI50,HCC-2998 colon,> 100 µM and 33 µM
same,TGI,HCC-2998 colon,> 100 µM
same,GI50,HOP-92 NSCLC,> 100 µM and 10.2 µM
same,TGI,HOP-92 NSCLC,> 100 µM
same,GI50,M14 melanoma,> 100 µM and 17.3 µM
same,TGI,M14 melanoma,> 100 µM
same,GI50,SF-539 CNS,> 100 µM and 25.8 µM
same,TGI,SF-539 CNS,> 100 µM
same,GI50,HS 578T breast,> 100 µM and 15.9 µM
same,TGI,HS 578T breast,> 100 µM and 64.1 µM
same,GI50,IGROV1 ovarian,> 100 µM and 47.3 µM
same,TGI,IGROV1 ovarian,> 100 µM
same,GI50,NCI-H460 lung,> 100 µM and 31.7 µM
same,TGI,NCI-H460 lung,> 100 µM
same,TGI,MDA-MB-435,> 100 µM and 15.3 µM
same,GI50,UACC-257 melanoma,> 100 µM and 71.3 µM
same,TGI,UACC-257 melanoma,> 100 µM
same,GI50,ACHN renal,> 100 µM and 85.1 µM
same,TGI,ACHN renal,> 100 µM
same,GI50,MDA-MB-231 breast,> 100 µM and 23.5 µM
same,TGI,MDA-MB-231 breast,> 100 µM
same,GI50,RPMI-8226 leukemia,> 100 µM and 41.4 µM
same,TGI,RPMI-8226 leukemia,> 100 µM
same,GI50,CCRF-CEM leukemia,> 100 µM and 29.7 µM
same,TGI,CCRF-CEM leukemia,> 100 µM
same,GI50,SNB-19 CNS,> 100 µM and 29.3 µM
same,TGI,SNB-19 CNS,> 100 µM
same,GI50,EKVX NSCLC,> 100 µM and 66.5 µM
same,TGI,EKVX NSCLC,> 100 µM
same,GI50,SNB-75 CNS,39.4 µM and 5.4 µM
same,TGI,SNB-75 CNS,> 100 µM and 43.4 µM
same,GI50,NCI-H23 lung,> 100 µM and 46.9 µM
same,TGI,NCI-H23 lung,> 100 µM
same,GI50,SW-620 colon,> 100 µM and 27.9 µM
same,TGI,SW-620 colon,> 100 µM
same,GI50,NCI-H226 lung,> 100 µM and 86.5 µM
same,TGI,NCI-H226 lung,> 100 µM
same,GI50,MOLT-4 leukemia,> 100 µM and 36 µM
same,TGI,MOLT-4 leukemia,> 100 µM
same,GI50,SN12C renal,> 100 µM and 38 µM
same,TGI,SN12C renal,> 100 µM
same,GI50,A498 renal,> 100 µM and 14 µM
same,TGI,A498 renal,> 100 µM and 52.5 µM
same,GI50,MCF7 breast,> 100 µM and 25.3 µM
same,TGI,MCF7 breast,> 100 µM
same,TGI,K-562 leukemia,> 100 µM
same,GI50,UACC-62 melanoma,> 100 µM and 16.6 µM
same,TGI,UACC-62 melanoma,> 100 µM
same,GI50,OVCAR-8 ovarian,> 100 µM and 35.3 µM
same,TGI,OVCAR-8 ovarian,> 100 µM
same,GI50,CAKI-1 renal,> 100 µM and 19.5 µM
same,TGI,CAKI-1 renal,> 100 µM
same,GI50,TK-10 renal,> 100 µM
same,TGI,TK-10 renal,> 100 µM
same,TGI,LOX IMVI melanoma,> 100 µM
same,TGI,SR leukemia,> 100 µM
same,GI50,A549 NSCLC,> 100 µM and 35.5 µM
same,TGI,A549 NSCLC,> 100 µM
same,GI50,NCI/ADR-RES ovarian,> 100 µM and 27.9 µM
same,TGI,NCI/ADR-RES ovarian,> 100 µM
same,GI50,PC-3 prostate,> 100 µM and 31.9 µM
same,TGI,PC-3 prostate,> 100 µM
same,GI50,T-47D breast,> 100 µM and 26.3 µM
same,TGI,T-47D breast,> 100 µM
same,GI50,SK-MEL-5 melanoma,> 100 µM and 46.1 µM
same,TGI,SK-MEL-5 melanoma,> 100 µM
same,GI50,HOP-62 NSCLC,> 100 µM and 34.3 µM
same,TGI,HOP-62 NSCLC,> 100 µM
same,GI50,RXF 393 renal,> 100 µM and 21.1 µM
same,TGI,RXF 393 renal,> 100 µM and 76.5 µM
same,GI50,OVCAR-5 ovarian,> 100 µM and 41.8 µM
same,TGI,OVCAR-5 ovarian,> 100 µM
same,GI50,HT29 colon,> 100 µM and 25.2 µM
same,TGI,HT29 colon,> 100 µM and 93.5 µM
same,GI50,NCI-H522 lung,> 100 µM and 20.2 µM
same,TGI,NCI-H522 lung,> 100 µM and 70.1 µM
same,GI50,BT-549 breast,> 100 µM and 15.2 µM
same,TGI,BT-549 breast,> 100 µM
same,GI50,COLO 205 colon,> 100 µM and 21.8 µM
same,TGI,COLO 205 colon,> 100 µM and 58.6 µM
